Test results published in paper PMC9643456, “Matching amino acids membrane preference profile to improve activity of antimicrobial peptides” (Communications Biology, 2022).
Ends that are not written are not given here.

Tests used:
human red blood cells = assay: Hemolytic activity; format: cell-based; conditions: red cells of human, 18 h
In short: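 Peptides (100 μM down to 0.78 μM) were incubated with 4% final human erythrocytes in PBS for 18 h at 37 °C. Supernatant absorbance at 540 nm after centrifugation was scaled to 1% Triton X-100 (100%) and no peptide (0%); melittin served as positive control; triplicate runs.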

[1] = Maximum soluble concentration / turbidity; format: physicochemical; conditions: for solubility: distilled water; for Maximum soluble concentration in PBS: lyophilized peptide reconstructed in PBS at 200-6.25 μM, visible turbidity checked every 12 h for 5 days, at least twice
Procedure: Supplementary Methods Bacteria preparation, Antimicrobial peptides preparation, Minimal-inhibitory-concentration measurements, Hemolysis-activity measurements, Tryptophan fluorescence measurements, Isothermal titration calorimetry measurements, Bacteria membrane ion permeation measurements, Outer-inner membrane permeation, Field-emission scanning electron microscopy and Antimicrobial kinetics were performed as described in Materials and Methods. Liposome (LUV) preparation. Bacterial-membrane-mimic DMPC/DMPG unilamellar vesicles (LUV) and mammalian- membrane-mimic PC/cholesterol vesicles with 100-nm diameters were prepared by extrusion. LiposoFast Liposome Factory Basic unit with stabilizer (Avestin, Ottawa, Canada) was used to extrude liposomes 50 times through a polycarbonate membrane filter (pore diameter, 100 nm; filter diameter, 0.75 inches) (Avestin). […] rac-(1-glycerol)) (sodium salt) (DMPG) (Avanti, Alabama, USA); 1,2-Dimyristoyl-sn-glycero-3-phosphocholine (DMPC) (Avanti); and cholesterol (Sigma, Darmstadt, Germany) were used. For circular dichroism, isothermal titration calorimetry, tryptophan fluorescence, and dynamic light scattering experiments, liposomes were reconstructed and resuspendedwith phosphate-buffered saline (PBS; Welgene Inc, Gyeongsangbuk-do, Korea). For calcein-permeation tests, liposomes were reconstructed with calcein solutions (80 mM, 40 mM, 30 mM, 20 mM, and 10 mM) (Sigma, Darmstadt, Germany), purified with Sephadex-G50 columns (Pharmacia biotech, Stockholm, Sweden), and resuspended with PBS. Maximum-soluble -concentration measurements. […] turbidity with PBS. The lowest concentration of peptide without visible turbidity was determined to be the maximu m soluble concentration. Each experiment was performed at least twice. Circular dichroism (CD) spectrum. DMPC/PG -liposome, PC/cholesterol -liposome, and peptide stock solutions were diluted in PBS. For circular dichroism, PBS with neither liposome nor peptides was also prepared. Liposomes and peptides were mixed to […] Samples were transferred into type J/1 cuvettes (Jasco, Tokyo, Japan). Cuvettes were placed into the J -815 circular -dichroism spectrometer (Jasco, Tokyo, Japan). Measurement parameters were as follows: wavelength, 190 -260 nm; data pitch, 0.2 nm; bandwidth, 1.00 nm; […] Each experiment was performed in triplicate. Data below 197 nm was not analyzed because o f experimental difficulties in obtaining those spectra. Each experiment was performed at least twice. Artificial membrane calcein permeation measurements. Calcein fluorescence was used to measure peptide -induced liposome permeation. Calcein solutions (10 mM, 20 mM, or 60 mM) containing PC/PG liposomes and peptides were diluted in PBS ( ×1, ×2, ×3, ×8). […] Liposome solutions (180 μl) were transferred to wells of black, clear -bottomed 96 -well plates (Costar, New York, USA). Peptide […] Liposome-containing plates and peptide -containing plates were inserted into a Flexstation 3 Multi -Mode Microplate Reader (Molecular Devices, California, USA). Peptide solutions (20 μl) were transferred and mixed with liposome solution automatical ly after 30 sec. […] Measurement parameters were as follows: excitation, 490 nm; emission, 520 nm; temperature, 37 °C. […] was transferred and mixed with the liposome -peptide solu tions automatically after 300 sec to acquire fluorescence at maximum leakage. […] Fluorescence measured between 0 -300 sec after addition of 0 μg/ml peptide was considered the baseline. Each experiment was performed at least twice. Dynamic light scattering (DLS) measurements. Dynamic light scattering was used to measure peptide -induced liposome volume changes. PC/PG -liposome stock solutions and peptides were resuspended in PBS. Liposomes and peptides were mixed to […]

MDR S. aureus = assay: microbe, parasite or virus in culture; conditions: for MIC in 0.2% albumin and 0.01% AcOH added CLSI standard condition, MDR S. aureus: CAMHB plus 0.2% bovine serum albumin and 0.01% acetic acid, values marked * in Table 2; for Minimum inhibitory concentrations, MDR S. aureus: CLSI broth microdilution, CAMHB with 50 mg/L Ca2+, 10 mg/L Mg2+, 5 × 10^5 CFU/ml, 18 h 37 °C, triplicate, strain KCCM 40510
In short: (§1)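 MIC was read by eye as the lowest peptide concentration leaving no visible turbidity. Peptide and mid-log cells (final 5 × 10^5 CFU/ml) were combined in cation-adjusted Mueller–Hinton broth containing 50 mg/L calcium and 10 mg/L magnesium and incubated 18 h at 37 °C.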

MDR P. aeruginosa = assay: microbe, parasite or virus in culture; conditions: for MIC in 0.2% albumin and 0.01% AcOH added CLSI standard condition, MDR P. aeruginosa: CAMHB plus 0.2% bovine serum albumin and 0.01% acetic acid, values marked * in Table 2; for Minimum inhibitory concentrations, MDR P. aeruginosa: CLSI broth microdilution, CAMHB with 50 mg/L Ca2+, 10 mg/L Mg2+, 5 × 10^5 CFU/ml, 18 h 37 °C, no visible turbidity, triplicate, strain CCARM 2180
In short: as §1

MDR E. faecalis = assay: microbe, parasite or virus in culture; conditions: for MIC in 0.2% albumin and 0.01% AcOH added CLSI standard condition, MDR E. faecalis: CAMHB plus 0.2% bovine serum albumin and 0.01% acetic acid, values marked * in Table 2; for Minimum inhibitory concentrations, MDR E. faecalis: CLSI broth microdilution, CAMHB with 50 mg/L Ca2+, 10 mg/L Mg2+, 5 × 10^5 CFU/ml, 18 h 37 °C, triplicate, strain ATCC 51575
In short: as §1

MDR A. baumannii = assay: microbe, parasite or virus in culture; conditions: for MIC in 0.2% albumin and 0.01% AcOH added CLSI standard condition, MDR A. baumannii: CAMHB plus 0.2% bovine serum albumin and 0.01% acetic acid, values marked * in Table 2; for Minimum inhibitory concentrations, MDR A. baumannii: CLSI broth microdilution, CAMHB with 50 mg/L Ca2+, 10 mg/L Mg2+, 5 × 10^5 CFU/ml, 18 h 37 °C, triplicate, strain ATCC BAA-1605
In short: as §1

| Substance | Hemolysis percent, 25 μM (human red blood cells) | Hemolysis percent, 50 μM (human red blood cells) | Hemolysis percent, 100 μM (human red blood cells) | solubility [1] | Maximum soluble concentration in PBS [1] | MIC in 0.2% albumin and 0.01% AcOH added CLSI standard condition, MDR S. aureus (MDR S. aureus) | Minimum inhibitory concentrations, MDR S. aureus (MDR S. aureus) | MIC in 0.2% albumin and 0.01% AcOH added CLSI standard condition, MDR P. aeruginosa (MDR P. aeruginosa) | Minimum inhibitory concentrations, MDR P. aeruginosa (MDR P. aeruginosa) | MIC in 0.2% albumin and 0.01% AcOH added CLSI standard condition, MDR E. faecalis (MDR E. faecalis) | Minimum inhibitory concentrations, MDR E. faecalis (MDR E. faecalis) | MIC in 0.2% albumin and 0.01% AcOH added CLSI standard condition, MDR A. baumannii (MDR A. baumannii) | Minimum inhibitory concentrations, MDR A. baumannii (MDR A. baumannii) | MIC at TM potential condition, S. aureus KCCM 40510 (MDR S. aureus; bacteria OD 0.1 (5 x 10^7 cfu/ml), CAMHB, 1% DMSO) |
| --- | --- | --- | --- | --- | --- | --- | --- | --- | --- | --- | --- | --- | --- | --- |
| GVWVLFRRR-NH2 [Ptg C-ter 3] | 0.44 ±0.10% | 0.80 ±0.09% | 1.32 ±0.09% | < 500 µM | 100 µM | > 20 µM | > 20 µM | > 20 µM | > 20 µM | > 20 µM | > 20 µM | > 20 µM | > 20 µM | – |
| WLRRWWIRV-NH2 [HLWCopW29-2] | 1.87 ±0.12% | 4.13 ±0.28% | 19.60 ±0.50% | – | > 200 µM | 10 µM | – | > 20 µM | > 20 µM | 10 µM | – | 2.5 µM | 5 µM | > 20 µM |
| RWLRWWIRV-NH2 [HLWCopW29-1] | 1.20 ±0.14% | 1.35 ±0.11% | 16.39 ±2.19% | – | > 200 µM | 10 µM | – | 20 µM | – | 10 µM | – | 1.25 µM | 2.5 µM | – |
| WLVWVWRRR-NH2 [Hybrid-3] | 4.26 ±0.63% | 5.14 ±0.19% | 7.17 ±1.09% | – | > 200 µM | 5 µM | 10 µM | > 20 µM | > 20 µM | 2.5 µM | 10 µM | 0.63 µM | 2.5 µM | – |
| WRLWRWIVR-NH2 [HLWCopW29-3] | 1.10 ±0.14% | 1.37 ±0.02% | 4.45 ±0.23% | – | > 200 µM | 20 µM | – | > 20 µM | > 20 µM | 20 µM | – | 20 µM | – | – |
| WLVWVGRRR-NH2 [Hybrid-1] | 0.88 ±0.24% | 1.09 ±0.32% | 1.40 ±0.08% | – | > 200 µM | > 20 µM | > 20 µM | > 20 µM | > 20 µM | > 20 µM | > 20 µM | > 20 µM | > 20 µM | – |
| WLVWIGRRR-NH2 [Hybrid-2] | 0.66 ±0.07% | 1.21 ±0.01% | 2.88 ±1.49% | – | > 200 µM | > 20 µM | > 20 µM | > 20 µM | > 20 µM | > 20 µM | > 20 µM | 10 µM | – | – |
| LLLLLWRRR-NH2 [AcWL-2] | 14.39 ±0.70% | 15.13 ± 2.05% | 27.97 ±2.79% | – | 50 µM | 10 µM | – | > 20 µM | > 20 µM | 10 µM | – | 20 µM | > 20 µM | – |
| GVLVWFRRR-NH2 [Ptg C-ter 2] | 0.52 ±0.05% | 1.14 ±0.02% | 1.80 ±0.07% | < 500 µM | 100 µM | > 20 µM | > 20 µM | > 20 µM | > 20 µM | > 20 µM | > 20 µM | > 20 µM | > 20 µM | – |
| GVLVLFRRR-NH2 [Ptg C-ter 1] | 0.40 ±0.10% | 0.99 ±0.26% | 1.17 ±0.07% | – | 100 µM | > 20 µM | > 20 µM | > 20 µM | > 20 µM | > 20 µM | > 20 µM | > 20 µM | > 20 µM | – |
